Test system: poppy crops
Assay: Example 9: field trial, mesosulfuron-methyl and metsulfuron-methyl, morphine crop
Format: in vivo, Papaver somniferum
Details: COMPOUND 1 120 MG/HA + PULSE .2 % V/V at GC, LRU and EBE
Description: All trials were conducted on poppy crops. Seed was treated with Thiram (5.6 g of Thiram 800/kg seed) and Apron (4 g/kg) and sown at a rate of approximately 750 g/ha. Fertilisers were applied at sowing. Most commonly, either 50:50 lime:superphosphate/triple superphosphate at 125 kg/ha, or lime:superphosphate at 250 kg/ha, were mixed with seed and drilled at a depth of 15 mm. In the same operation, NPK (nitrogen:phosphorus:potassium), at various rates, was banded 75 mm below the seed, unless otherwise stated. All crops were subjected to herbicide sprays for weed control, fungicide sprays for disease control, insecticide sprays if appropriate and were irrigated as required.
All spray applications were made with a precision sprayer, using Silvan Lurmark flat-fan, low-drift nozzles (LD110-0015). Spray equipment was calibrated to deliver 153 L water/ha.
At harvest, a 2 m×4 m quadrat was placed in each plot (3 m×6 m, unless otherwise stated) and capsules hand-picked from this area. Capsules were broken up, seed and capsule material separated and weighed. Capsule moisture readings were taken with a moisture meter. Alkaloid yield data were calculated on Pesticide Research Manager (version 5 for Windows) using the formulae below. Briefly, capsule weight was adjusted for moisture to a dry weight, 5% of seed weight was added to this (this amount of capsule material regularly occurs in seed samples after processing) to give a capsule weight per plot. Seed weight was adjusted to 95% of crude weight. Straw weights were determined by multiplying dry capsule weight by 1.3 (estimated amount of stem material in a commercial harvest) and adjusted to 11% moisture. When Lontrel was applied to crops exact capsule and seed weight data were entered. Analyses of variance and a Multiple Range Test were performed on data using Pesticide Research Manager.
Trial to evaluate applications of mesosulfuron-methyl (Compound 2) and metsulfuron-methyl (Compound 1), in a morphine crop. Treatment sprays were applied to crop at ground cover, late run-up and early bud-emergence, respectively. Plant heights were measured at green capsule stage, and lodging assessed on the day of capsule harvest.

For `COC(=O)c1ccccc1S(=O)(=O)NC(=O)Nc1nc(C)nc(OC)n1` [Compound 1, metsulfuron-methyl], which “CAPSULE/SEED RATIO” value is on record?
Its value is 3.844 a.

And the “CROP WEIGHT” value?
The value was 2.67 b t/ha.

What about the MORPHINE of the same compound?
The MORPHINE was 43.94 a kg/ha.

And the SEED?
The SEED was 468 b kg/ha.

What about the STRAW of the same compound?
Its STRAW is 2206 a kg/ha.

And the “STRAW MORPHINE” value?
Its value is 2.04 a %.

And the LODGING (assessed on the day of capsule harvest)?
The LODGING was 2.3 c %.

What about the HEIGHT (measured at green capsule stage) of the same compound?
Its HEIGHT is 94.5 ab cm.
